Consider 3 molecules from patent publication US20130052268A1, “COMPOSITIONS AND METHODS FOR TREATMENT OF PARKINSON'S DISEASE” (THE MCLEAN HOSPITAL CORPORATION, priority 2010, published 2013).

Holding throughout (assay type): cell-based, mouse
Data set [1] has as its system SHH signaling. Description: Wnt1 induction of Lmx1a in the presence of the SHH signaling inhibitor cyclopamine, qPCR at NP stage. The settings on record: Wnt1-retrovirus transduced NP cells, 1 mM cyclopamine for 3 days. Here is the method: FIG. 10A-B show interaction between SHH and other factors. […] J1 ES-derived NP cells were transduced with empty- or Wnt1-retrovirus and cultured in the absence or presence of […] cyclopamine for 3 days, and analyzed by qPCR at NP stage. […] NP stage cells were treated with 500 ng/ml of SHH or […] Cyclopamine for 6 hours and analyzed by qPCR.
(§1) It was previously shown that SHH treatment could ventralize chick intermediate midbrain explants, accompanied by induction of Lmx1a and other ventral midbrain phenotype (Andersson et al., 2006b). […] ES-derived NP cells were treated with 500 ng/ml SHH or 1 μM cyclopamine for 6 hours and analyzed by qPCR.
(In general: Real-time PCR tracks product formation cycle by cycle.)

The test system of data set [2] is SHH signaling. Description: Acute treatment of ES-derived NP cells with SHH or cyclopamine, qPCR. The settings on record: 6 hours. Here is the method: For all other samples, total RNA was prepared using TriReagent (Sigma, St. Louis, Mo.) followed by further purification using RNeasy mini kit (Qiagen, Valencia, Calif.). For RT-PCR analysis, 2 ? g of RNA were transcribed into cDNA with the SuperScript™ II RT (Invitrogen, Carlsbad, Calif.) and oligo (dT) primers. For quantitative analysis of the expression level of mRNAs, real-time PCR analyses using SYBR green I were performed using a DNA engine Opticon™ (MJ Research, Waltham, Mass.). To reduce non-specific signals, oligonucleotides amplifying small amplicons were designed using the MacVector software (Oxford Molecular Ltd.: primers sequences are available upon request). Amplifications were performed in 25 μl containing 0.5 μM of each primer,
0.5×SYBR Green I (Molecular Probes, Oreg.), and 2 μl of 5 fold diluted cDNA. Fifty PCR cycles were performed with a temperature profile consisting of 95° C. for 30 sec, 55° C. for 30 sec, 72° C. for 30 sec, and 79° C. for 5 sec. The dissociation curve of each PCR product was determined to ensure that the observed fluorescent signals were only from specific PCR products. After each PCR cycle, the fluorescent signals were detected at 79° C. to melt primer dimers (Tms of all primer dimers used in this study were <76° C.). A standard curve was constructed using plasmid DNAs containing the GAPDH gene (from 10^2 to 10^8 molecules). The fluorescent signals from specific PCR products were normalized against that of the β-actin gene, and then relative values were calculated by setting the normalized value of control as 1 (or 100 in some cases). All reactions were repeated using more than three independent samples.
as §1

The test system of data set [3] is ES cell-derived NP cells. Description: siRNA knock down of Lmx1a and Lmx1b in ES cell-derived NP and ND stage cells. Here is the method:
For siRNA transfection, NP stage cells were treated with 50 ng/ml FGF8 and 100 ng/ml SHH for 4 days to induce/proliferate mDA NPs, followed by transfection with siRNA using the Nucleofector (Amaxa, Walkersville, Md.) mouse stem cell kit with the program A-033 according to the manufacturer's instruction. Per transfection, 5×10^6 NP cells were treated with 480 pmol of siRNA, diluted in 10 ml of N3bFGF media (or N3 media for ND stage transfection) and plated in PLO/FN-coated multiwell plate, resulting in a final siRNA concentration of 48 nM. For ND stage transfection, cells were further differentiated in N3 media for 2 days before transfection. Multiple Stealth siRNAs were purchased from Invitrogen (Carlsbad, Calif.), screened for gene silencing efficiency by cotransfection with Lmx1a or Lmx1b-expressing plasmids and only siRNAs showing efficient gene silencing (>95%) was used for the experiments. The sequences of the siRNAs are as follows: the Lmx1a sense strand […] (SEQ ID NO: 1); the Lmx1a antisense strand […] (SEQ ID NO: 2); the Lmx1b sense strand […] (SEQ ID NO: 3); the Lmx1b antisense strand […] (SEQ ID NO: 4). Thirty hours after transfection, cells were fixed for immunocytochemistry or harvested for RNA preparation.
To further study the redundant function between Lmx1a and Lmx1b, experiments were carried out to knock down these genes using gene-specific siRNA approach. ES cell-derived NP cells were treated with SHH and FGF8 for 4 days to induce/proliferate mDA NPs, and then transfected with control siRNA, Lmx1a siRNA, Lmx1b siRNA or both Lmx1a/1b siRNAs using Nucleofector (Amaxa) and analyzed after 30 hours. […] This insignificant effect is in contrast with the robust induction effect observed in overexpression experiment (FIG. 5A). This can be explained by incomplete knockdown by siRNA and/or nonphysiological overexpression effect caused by retroviral transduction. […] Since Pitx3^+ cells were not yet detectable at this NP stage, the gene knockdown experiment was repeated at ND stage cells.

[4] abbreviates: NP cells, 500 ng/ml SHH or 1 μM cyclopamine.
The mark [5] stands for this setting: ND stage, 30 hrs after transfection.
[6] abbreviates: NP stage, 30 hours after transfection.
[7] abbreviates: NP stage, 30 hours after transfection, 48 nM siRNA.

`CC1=C2C[C@H]3[C@@H](CC=C4C[C@@H](O)CC[C@@]43C)[C@@H]2CC[C@]12O[C@@H]1C[C@H](C)CN[C@H]1[C@H]2C` [cyclopamine]: the “induction of Lmx1a gene expression by Wnt1” value in data set [1] is on record as “not affected”. In addition, in data set [2] (setting [4]), the “Lmx1a mRNA levels” value is reported as “no significant changes”, the “Nurr1 mRNA levels” value is on record as “no significant changes” and the “TH mRNA levels” value is “no significant changes”. In addition, the “mRNA level of Gli1” value in data set [2] (NP stage cells, 500 ng/ml SHH or μM Cyclopamine) is given as “reduced”.

Regarding “Lmx1a siRNA: Stealth siRNA, sense GAGGAGAGCAUUCAAGGCCUCGUUU (SEQ ID NO: 1), antisense SEQ ID NO: 2 (antisense AAACGAGGCCUUGAAUGCUCUCCUC; Stealth modification, further chemistry not given here)”, the “mRNA level of Lmx1a” value in data set [3] (setting [5]) is listed as “significantly reduced”. In addition, in data set [3] (setting [6]), the Nurr1 gene expression entry was “did not have significant effect” and the Wnt1 gene expression result was “did not have significant effect”. For the same molecule, the “mRNA level of Lmx1a” value in data set [3] (setting [7]) is listed as “significantly reduced”.

For the molecule “Lmx1b siRNA: Stealth siRNA, sense GGAACGACUCCAUCUUCCACGAUAU (SEQ ID NO: 3), antisense SEQ ID NO: 4 (antisense AUAUCGUGGAAGAUGGAGUCGUUCC; Stealth modification, further chemistry not given here)”, the “mRNA level of Lmx1b” value in data set [3] (setting [5]) and in data set [3] (setting [7]) was “significantly reduced” throughout. Besides, in data set [3] (setting [6]), the Nurr1 gene expression entry is “did not have significant effect”. Moreover, in data set [3] (setting [6]), the Wnt1 gene expression entry is “did not have significant effect”.
